Measurements published in patent US8828988B2 (Tetraphase Pharmaceuticals, Inc., priority 2009, dated 2014).
In brackets after ≈: the same amount, converted by molar mass. Like-named read-outs stand apart in the source and are kept apart here.

Experiments:
[1] = test system: Acinetobacter baumannii AB110, ATCC 19606; assay: MIC assay, AB110; type: cell-based
[2] = test system: H. influenzae isolates (Eurofins-Medinet, recent clinical isolates); assay: MIC50 and MIC90 analysis (Example 22)
Method: (§4) Frozen bacterial strains were thawed and subcultured onto Mueller Hinton Broth (MHB) or other appropriate media (Streptococcus requires blood and Haemophilus requires hemin and NAD). Following incubation overnight, the strains were subcultured onto Mueller Hinton Agar and again incubated overnight. […] Isolated colonies were selected to prepare a starting inoculum equivalent to a 0.5 McFarland standard. […] Antibiotics (stored frozen, thawed and used within 3 hours of thawing) and compounds were further diluted to the desired working concentrations.
(§5) The assays were run as follows. Fifty μL of MHB was added to wells 2-12 of a 96-well plate. One hundred μL of appropriately diluted antibiotic or compound was added to well 1. Fifty μL of antibiotics or compound was removed from well 1 and added to well 2 and the contents of well 2 mixed by pipetting up and down five times. Fifty μL of the mixture in well 2 was removed and added to well 3 and mixed as above. Serial dilutions were continued in the same manner through well 12. Fifty μL was removed from well 12 so that all contained 50 μL. Fifty μL of the working inoculum was then added to all test wells. A growth control well was prepared by adding 50 μL of working inoculum and 50 μL of MHB to an empty well. The plates were then incubated at 37° C. overnight, removed from the incubator and each well was read on a plate reading mirror. The lowest concentration (MIC) of test compound that inhibited the growth of the bacteria was recorded.
(§6) MIC, MIC50 and MIC90 values were determined according to CLSI methodology. S. pneumoniae and H. influenzae isolates were obtained from Eurofins-Medinet and are recent clinical isolates. S. aureus strains were collected from various geographical sources.

[3] = test system: Klebsiella pneumoniae KP153, tetracycline-resistant, tet(A), MDR, ESBL+; assay: MIC assay, KP153; type: cell-based
[4] = test system: Enterobacter cloacae EC108, ATCC 13047; assay: MIC assay, EC108; type: cell-based
[5] = test system: Enterococcus faecalis EF103, ATCC 29212; assay: MIC assay, EF103; type: cell-based; conditions: for MIC: Enterococcus faecalis
[6] = test system: Escherichia coli EC155, tetracycline-resistant, tet(A); assay: MIC assay, EC155; type: cell-based
[7] = test system: Staphylococcus aureus SA100, ATCC 13709, MSSA, Smith strain; assay: MIC assay, SA100; type: cell-based
[8] = test system: E. faecalis clinical isolates; assay: MIC50, MIC90 and MIC range, panel of clinical isolates (Example 20); type: cell-based; conditions: 24 isolates, in µg/mL
Method: (§1) The assays were run as follows.
(§2) Both values, as well as the MIC range (the lowest and highest MIC value observed for a collection of organisms), were determined for the isolates listed in Table 3.

[9] = test system: S. aureus clinical isolates; assay: as above; type: cell-based; conditions: MRSA, 30 isolates; in µg/mL
Method: as §1, §2

[10] = test system: S. pneumoniae clinical isolates; assay: as above; type: cell-based; conditions: 19 isolates, in µg/mL
Method: as §1, §2

[11] = test system: Klebsiella pneumoniae KP109, ATCC 13883; assay: MIC assay, KP109; type: cell-based
[12] = test system: Pseudomonas aeruginosa PA111, ATCC 27853; assay: MIC assay, PA111; type: cell-based
[13] = test system: Staphylococcus aureus SA161, HA-MRSA, tetracycline-resistant, tet(M); assay: MIC assay, SA161; type: cell-based
[14] = test system: E. coli DH10B(pBAD-tetM), expressing tet(M); assay: MIC against recombinant E. coli expressing tet(M); type: cell-based
Description: (§3) Constructs were transformed into E. coli DH10B for expression. Recombinant strains were pre-induced under optimized conditions with L-arabinose prior to use as inocula in CLSI standardized MIC assays.

[15] = test system: Streptococcus pneumoniae SP106, ATCC 49619; assay: MIC assay, SP106; type: cell-based
[16] = test system: Escherichia coli EC107, ATCC 25922; assay: MIC assay, EC107; type: cell-based
[17] = test system: Staphylococcus aureus SA101, ATCC 29213, MSSA; assay: MIC assay, SA101; type: cell-based
[18] = test system: Staphylococcus aureus SA158, tetracycline-resistant tet(K); assay: MIC assay, SA158; type: cell-based
[19] = test system: E. coli DH10B(pBAD-tetK), expressing tet(K); assay: MIC against recombinant E. coli expressing tet(K); type: cell-based; conditions: for MIC: Escherichia coli
Description: as §3

[20] = test system: S. pneumoniae isolates (Eurofins-Medinet, recent clinical isolates); assay: MIC50 and MIC90 analysis (Example 22)
Method: as §4, §5, §6

[21] = test system: Streptococcus pneumoniae SP160, tetracycline-resistant, tet(M); assay: MIC assay, SP160; type: cell-based
[22] = test system: Enterococcus faecalis EF159, tetracycline-resistant, tet(M); assay: MIC assay, EF159; type: cell-based
[23] = test system: E. coli S30 extract system, coupled in vitro transcription/translation, firefly luciferase readout; assay: In vitro transcription/translation (TnT) assay; type: biochemical
[24] = ATCC19606, read-out: MIC AB110 19606
[25] = ATCC13047, read-out: MIC EC108 13047
[26] = ATCC29212, read-out: MIC EF103 29212
[27] = ATCC13883, read-out: MIC KP109 13883
[28] = ATCC27853, read-out: MIC PA111 27853
[29] = ATCC49619, read-out: MIC SP106 49619
[30] = ATCC25922, read-out: MIC EC107 25922

SMILES: C[C@H]1c2cccc(O)c2C(=O)C2=C(O)[C@]3(O)C(=O)C(C(N)=O)=C(O)[C@@H](N(C)C)[C@@H]3[C@@H](O)[C@@H]21 [Doxycycline, doxycycline, reference compound]
- MIC ([1]; ATCC19606, Table 9, read-out: MIC A.baum AB110): 2 µg/mL (≈ 4.5 µM)
- MIC Range ([2]; H. influenzae (n = 12)): 0.5 to 4 µg/mL
- MIC50 ([2]; Haemophilus influenzae): 1 µg/mL (≈ 2.25 µM)
- MIC90 ([2]; Haemophilus influenzae): 4 µg/mL (≈ 9 µM)
- MIC ([3]; Table 9, read-out: MIC Klebsiella pneum KP153 (tet)A): 32 µg/mL (≈ 72 µM)
- MIC ([4]; ATCC13047, Table 9, read-out: MIC Enterobacter cloaceae ATCC 13047): 4 µg/mL (≈ 9 µM)
- MIC ([5]; ATCC29212, Table 8, read-out: MIC E. faecalis ATCC 29212): 4 µg/mL (≈ 9 µM)
- MIC E. faecalis ATCC 29212 ([5]; Table 9): 4 µg/mL (≈ 9 µM)
- MIC ([6]; Table 8, read-out: MIC E. coli tetA): 32 µg/mL (≈ 72 µM)
- MIC ([6]; Table 9, read-out: MIC E. coli EC155 (tet)A): 32 µg/mL (≈ 72 µM)
- MIC ([7]; Table 9, read-out: MIC S. aureus ATCC 13709): 0.13 µg/mL (≈ 0.293 µM)
- MIC Range [8]: 0.063-16
- MIC Range [9]: 0.063-8
- MIC Range [10]: <=0.016-16
- MIC ([11]; ATCC13883, Table 9, read-out: MIC Klebsiella pneum ATCC 13883): 2 µg/mL (≈ 4.5 µM)
- MIC ([12]; ATCC27853, Table 9, read-out: MIC P. aeruginosa ATCC 27853): > 32 µg/mL
- MIC ([13]; Table 8, read-out: MIC S. aureus MRSA, tetM): 8 µg/mL (≈ 18 µM)
- MIC ([13]; Table 9, read-out: MIC MRSA (tet)M SA161): 8 µg/mL (≈ 18 µM)
- MIC ([14]; Escherichia coli, read-out: MIC, Uninduced): 4 µg/mL
- Ratio (TetM induced / Uninduced) ([14]; ratio of MICs): 8
- MIC ([15]; ATCC49619, Table 8, read-out: MIC S. pneumoniae ATCC 49619): 0.06 µg/mL (≈ 0.135 µM)
- MIC ([15]; ATCC49619, Table 9, read-out: MIC S. pneum ATCC 49619): 0.25 µg/mL (≈ 0.563 µM)
- MIC ([16]; ATCC25922, Table 8, read-out: MIC E. coli ATCC 25922): 1 µg/mL (≈ 2.25 µM)
- MIC ([16]; ATCC25922, Table 9, read-out: MIC E. coli ATCC 25922): 1 µg/mL (≈ 2.25 µM)
- MIC ([17]; Table 8, read-out: MIC S. aureus ATCC 29213): 0.13 µg/mL (≈ 0.293 µM)
- MIC ([17]; Table 9, read-out: MIC S. aureus ATCC 29213): 0.5 µg/mL (≈ 1.13 µM)
- MIC ([18]; Table 8, read-out: MIC S. aureus tetK): 2 µg/mL (≈ 4.5 µM)
- MIC ([18]; Table 9, read-out: MIC S. aureus SA158 (tet)K): 2 µg/mL (≈ 4.5 µM)
- MIC ([19]; read-out: MIC, TetK Induced): 8 µg/mL
- MIC ([19]; read-out: MIC, Uninduced): 2 µg/mL
- MIC ratio, TetK induced to uninduced ([19]; ratio of TetK induced to uninduced MIC): 4
- MIC in the presence of tet(K) expression, fold higher than when tet(K) was not expressed ([19]; tet(K) expressed vs not expressed): 4 fold
- MIC Range ([20]; S. pneumoniae (n = 20)): ≦0.016-16 μg/ml
- MIC50 ([20]; Streptococcus pneumoniae): 8 µg/mL (≈ 18 µM)
- MIC90 ([20]; Streptococcus pneumoniae): 8 µg/mL (≈ 18 µM)
- MIC ([21]; Table 8, read-out: MIC S. pneumoniae tetM): 4 µg/mL (≈ 9 µM)
- MIC ([21]; Table 9, read-out: MIC S. pneum SP160 (tet)M): 8 µg/mL (≈ 18 µM)
- MIC ([22]; Table 8, read-out: MIC E. faecalis tetM): 4 µg/mL (≈ 9 µM)
- MIC ([22]; Table 9, read-out: MIC E. faecalis EF159 (tet)M): 8 µg/mL (≈ 18 µM)

SMILES: CN(C)c1ccc(O)c2c1C[C@H]1C[C@H]3[C@H](N(C)C)C(O)=C(C(N)=O)C(=O)[C@@]3(O)C(O)=C1C2=O [Mino., Minocycline, reference compound]
- MIC ([1]; ATCC19606, numeric values of control compounds, read-out: MIC AB110 19606): 0.06 µg/mL (≈ 0.131 µM)
- MIC ([3]; numeric values of control compounds, read-out: MIC KP153 tetA): 8 µg/mL (≈ 17.5 µM)
- MIC ([4]; ATCC13047, numeric values of control compounds, read-out: MIC EC108 13047): 2 µg/mL (≈ 4.37 µM)
- MIC ([6]; numeric values of control compounds, read-out: MIC EC155 tetA): 8 µg/mL (≈ 17.5 µM)
- MIC ([7]; numeric values of control compounds, read-out: MIC SA100 13709): 0.06 µg/mL (≈ 0.131 µM)
- MIC ([12]; ATCC27853, numeric values of control compounds, read-out: MIC PA111 27853): 16 µg/mL (≈ 35 µM)
- MIC ([13]; numeric values of control compounds, read-out: MIC SA161 MRSA, tetM): 8 µg/mL (≈ 17.5 µM)
- MIC ([15]; ATCC49619, numeric values of control compounds, read-out: MIC SP106 49619): < 0.015 µg/mL
- MIC ([16]; ATCC25922, numeric values of control compounds, read-out: MIC EC107 25922): 0.5 µg/mL (≈ 1.09 µM)
- MIC ([17]; numeric values of control compounds, read-out: MIC SA101 29213): 0.06 µg/mL (≈ 0.131 µM)
- MIC ([18]; numeric values of control compounds, read-out: MIC SA158 tetK): 0.03 µg/mL (≈ 0.0656 µM)
- MIC ([21]; numeric values of control compounds, read-out: MIC SP160 tetM): 2 µg/mL (≈ 4.37 µM)
- MIC ([22]; numeric values of control compounds, read-out: MIC EF159 tetM): 16 µg/mL (≈ 35 µM)

SMILES: CN(C)[C@@H]1C(O)=C(C(N)=O)C(=O)[C@@]2(O)C(O)=C3C(=O)c4c(O)cccc4C[C@H]3C[C@@H]12 [San., Sancycline, reference compound]
- MIC [1, 24]: 0.25 µg/mL (≈ 0.603 µM)
- MIC ([3]; read-out: MIC KP153 tetA): 32 µg/mL (≈ 77.2 µM)
- MIC [4, 25]: 8 µg/mL (≈ 19.3 µM)
- MIC [5, 26]: 8 µg/mL (≈ 19.3 µM)
- MIC ([6]; read-out: MIC EC155 tetA): 32 µg/mL (≈ 77.2 µM)
- MIC ([7]; read-out: MIC SA100 13709): 1 µg/mL (≈ 2.41 µM)
- MIC [11, 27]: 8 µg/mL (≈ 19.3 µM)
- MIC [12, 28]: > 32 µg/mL
- MIC [15, 29]: 0.25 µg/mL (≈ 0.603 µM)
- MIC [16, 30]: 8 µg/mL (≈ 19.3 µM)
- MIC ([17]; read-out: MIC SA101 29213): 0.5 µg/mL (≈ 1.21 µM)
- MIC ([18]; read-out: MIC SA158 tetK): 4 µg/mL (≈ 9.65 µM)
- MIC ([21]; read-out: MIC SP160 tetM): 8 µg/mL (≈ 19.3 µM)
- MIC ([22]; read-out: MIC EF159 tetM): 8 µg/mL (≈ 19.3 µM)

SMILES: CN(C)c1cc(NC(=O)CNC(C)(C)C)c(O)c2c1C[C@H]1C[C@H]3[C@H](N(C)C)C(O)=C(C(N)=O)C(=O)[C@@]3(O)C(O)=C1C2=O [Tige., Tigecycline, reference compound]
- MIC [1, 24]: 0.25 µg/mL (≈ 0.427 µM)
- MIC ([3]; read-out: MIC KP153 tetA): 1 µg/mL (≈ 1.71 µM)
- MIC [4, 25]: 0.25 µg/mL (≈ 0.427 µM)
- MIC [5, 26]: 0.03 µg/mL (≈ 0.0512 µM)
- MIC ([6]; read-out: MIC EC155 tetA): 0.5 µg/mL (≈ 0.854 µM)
- MIC ([7]; read-out: MIC SA100 13709): 0.06 µg/mL (≈ 0.102 µM)
- MIC [11, 27]: 0.125 µg/mL (≈ 0.213 µM)
- MIC [12, 28]: 8 µg/mL (≈ 13.7 µM)
- MIC ([13]; read-out: MIC SA161 MRSA, tetM): 0.125 µg/mL (≈ 0.213 µM)
- MIC [15, 29]: 0.0156 µg/mL (≈ 0.0266 µM)
- MIC [16, 30]: 0.03 µg/mL (≈ 0.0512 µM)
- MIC ([17]; read-out: MIC SA101 29213): 0.06 µg/mL (≈ 0.102 µM)
- MIC ([18]; read-out: MIC SA158 tetK): 0.06 µg/mL (≈ 0.102 µM)
- MIC ([21]; read-out: MIC SP160 tetM): 0.0156 µg/mL (≈ 0.0266 µM)
- MIC ([22]; read-out: MIC EF159 tetM): 0.06 µg/mL (≈ 0.102 µM)
- TnT IC50 [23]: 0.3 µg/mL
